pEC50, pIC50: −log10 of the molar value. Where two headings read alike, the source gives them in different places.
Columns and labels:
[1] = target: T1, varicella zoster virus DNA polymerase (Varicella-zoster virus, UniProt P09252); assay: VZV polymerase assay (AlphaLISA); format: biochemical; settings: VZV DNA polymerase 0.4 nM, 60 minutes at 37° C.
T1 construct: made in house; host or cells: SF21 insect cells (baculovirus vector)
Protocol: Human cytomegalovirus and varicella zoster virus DNA polymerases were expressed via baculovirus vector in SF21 cells and purified. Heterodimeric nucleic acid substrate used in the herpesvirus polymerase reactions was generated by annealing a 59-mer template to a 17-mer digoxigenin-labeled primer. Polymerase (HCMV final concentration of 0.2 nM; VZV final concentration of 0.4 nM) was combined with an inhibitor compound or DMSO in assay buffer (10 mM HEPES, pH 7.5, 25 mM KCl, 25 mM NaCl, 5 mM MgCl2, 5% glycerol, 0.67 mg/ml bovine serum albuminutes, and 1 mM tris(2-carboxyethyl)phosphine), and this mixture was pre-incubated for 30 minutes at room temperature in 384-well microtiter plates. The polymerization reaction was initiated by the addition of template/primer substrate (final concentration: 1.6 nM), and dNTPs (final concentration: 24 nM dCTP, 24 nMdGTP, 16 nM dATP, 16 nM dTTP, and 0.8 nM biotin-dUTP). After 60 minutes incubation at 37° C., reactions were terminated with quench buffer (25 mM HEPES pH 7.5, 100 mM NaCl, 0.25% Tween-20, 12 mM EDTA, and 1 mg/ml bovine serum albumin). Incorporation of biotinylated UTP was detected with 2.5-ug/ml anti-DIG AlphaLISA acceptor beads and 5-10 ug/ml streptavidin AlphaLISA donor beads (Perkin Elmer). Compound effects were normalized to the window defined by the controls (DMSO only and pre-quenched wells) and were fit using a 4-parameter algorithm to report an IC50.

HCMV Strain AD169 = assay: Viral qPCR assay, HCMV in MRC-5 cells; format: cell-based, Human cytomegalovirus; settings: read-out: CMV MRC5 Cell (EC50)
How it was run: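 Viral genome copies, quantified by TaqMan qPCR with a plasmid standard curve after ~72 h infection of MRC-5 cells with AD169 at 0.05-0.1 pfu/cell, served as readout; PPIA normalisation used in one format. Compounds run as 10-point 3-fold series, in standard or 50% FBS media; EC50 by 4-parameter fit.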

VZV [2] = assay: Viral qPCR assay, VZV in MeWo cells; format: cell-based, varicella zoster virus; settings: ~72 hrs, read-out: VZV MEWO Cell (IC50)
Protocol: (§1) MRCS cells, Vero cells, and MeWo cells were obtained from ATCC and were maintained at 37° C./5% CO2/90% relative humidity in Minimal Essential Medium with 10% fetal bovine serum, […] L-glutamine, 100 units/ml penicillin and 100 ug/ml streptomycin. Assay plates were prepared by dispensing compounds dissolved in DMSO into wells of 384 well collagen-coated plates using an ECHO acoustic dispenser. Each compound was tested in a 10-point, serial 3-fold dilution. Controls included uninfected cells and infected cells treated only with DMSO. Assays were initiated by mixing selected cells, in suspension, with virus, and dispensing 50 μl/well infected cells to pre-plated compounds. Plates were incubated at 37° C./5% CO2/90% relative humidity for ˜72 hrs to permit genomic replication, and infected cells were lysed by the addition of an equal volume of lysis buffer (10 mM Tris-HCl, pH8, 50 mM KCl, 2 mM MgCl2, 0.45% NP-40, 0.45% Tween-20, and 100 μg/ml proteinase K). An aliquot of the lysate was transferred to a 384-well PCR plate and incubated at 56° C. for 1 hour and then at 95° C. for 10 min. Levels of a viral gene and of the cellular control, PPIA (Thermo Fisher Assay ID=Hs04194521_s1), were measured in separate 10 μL qPCR assays using TaqMan® Gene Expression Master Mix (Applied Biosystems), and an 7900HT Fast Real-Time PCR System with 384-Well Block Module. 7-point, serial 10-fold dilutions of a plasmid standard were run on each plate to generate a standard curve, and genome copies numbers were calculated by plotting experimental Ct onto linear regression of the standard curve. Viral genome copy numbers were normalized by cellular control copy number, and compound effects were normalized to the window defined by the controls. Calculated % effects were fit using a 4-parameter algorithm, and EC50 was reported.
as §1, with “gene” for “gene and of the cellular control, PPIA (Thermo Fisher Assay ID=Hs04194521_s1),”, “in” for “in separate”, “Compound effects on viral” for “Viral”, “number” for “numbers were normalized by cellular control copy number, and compound effects”
(§2) VZV: Strain Street was maintained as an infected cell stock in MRC-5 cells. It was assayed in MeWo or MRCS cells and was used at 0.04-0.1 pfu/cell. The assays were performed in growth medium. Primer-probe set was Thermo Fisher Assay ID=AIPAEXQ. HSV-1: Strain F Street was assayed in Vero or MRCS cells and was used at 0.0005-0.004 pfu/cell in growth medium. Primer-probe set was Thermo Fisher Assay ID=AIBJZIB

HSV2 [3] = assay: Viral qPCR assay, HSV2 in Vero cells; format: cell-based, Herpes Simplex Virus type 2; settings: read-out: HSV2 VERO Cell (EC50)
Protocol: as §1
as §1, with “gene” for “gene and of the cellular control, PPIA (Thermo Fisher Assay ID=Hs04194521_s1),”, “in” for “in separate”, “Compound effects on viral” for “Viral”, “number” for “numbers were normalized by cellular control copy number, and compound effects”

[4] = target: T2, Human cytomegalovirus DNA polymerase (Human cytomegalovirus, UniProt P08546); assay: HCMV polymerase assay (AlphaLISA); format: biochemical; settings: HCMV DNA polymerase 0.2 nM, 60 minutes at 37° C.; read-out: CMV (IC50)
T2 construct: made in house; host or cells: SF21 insect cells (baculovirus vector)
How it was run: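 Baculovirus/SF21-expressed polymerase (HCMV 0.2 nM; VZV 0.4 nM) pre-incubated 30 min at room temperature with compound in HEPES pH 7.5 buffer, then 60 min at 37 °C with 1.6 nM DIG-primer/template, sub-nM to 24 nM dNTPs and 0.8 nM biotin-dUTP. AlphaLISA detection; IC50 from 4-parameter fit.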

HSV-1 Strain F [5] = assay: Viral qPCR assay, HSV-1 in Vero cells; format: cell-based, Herpes Simplex Virus type 1; settings: read-out: HSV1 VERO Cell (EC50)
Protocol: as §1
as §1, with “gene” for “gene and of the cellular control, PPIA (Thermo Fisher Assay ID=Hs04194521_s1),”, “in” for “in separate”, “Compound effects on viral” for “Viral”, “number” for “numbers were normalized by cellular control copy number, and compound effects”
as §2

VZV [6] = assay: Viral qPCR assay, VZV in MRC5 cells; format: cell-based, varicella zoster virus; settings: read-out: VZV MRC5 Cell (IC50)
Protocol: as §1
as §1, with “gene” for “gene and of the cellular control, PPIA (Thermo Fisher Assay ID=Hs04194521_s1),”, “in” for “in separate”, “Compound effects on viral” for “Viral”, “number” for “numbers were normalized by cellular control copy number, and compound effects”
as §2

HSV2 [7] = assay: Viral qPCR assay, HSV2 in MRC5 cells; format: cell-based, Herpes Simplex Virus type 2; settings: read-out: HSV2 MRC5 Cell (EC50)
Protocol: as §1
as §1, with “gene” for “gene and of the cellular control, PPIA (Thermo Fisher Assay ID=Hs04194521_s1),”, “in” for “in separate”, “Compound effects on viral” for “Viral”, “number” for “numbers were normalized by cellular control copy number, and compound effects”

HSV-1 Strain F [8] = assay: Viral qPCR assay, HSV-1 in MRC5 cells; format: cell-based, Herpes Simplex Virus type 1; settings: read-out: HSV1 MRC5 Cell (EC50)
Protocol: as §1
as §1, with “gene” for “gene and of the cellular control, PPIA (Thermo Fisher Assay ID=Hs04194521_s1),”, “in” for “in separate”, “Compound effects on viral” for “Viral”, “number” for “numbers were normalized by cellular control copy number, and compound effects”
as §2

[9] = Human betaherpesvirus 5, AD169, MRC5, 72 h
[10] = Human alphaherpesvirus 3, MRC5, 72 h
[11] = Human alphaherpesvirus 2, MRC5, 72 h
[12] = Human alphaherpesvirus 2, Vero, 72 h
[13] = Human alphaherpesvirus 1, MRC5, 72 h
[14] = Human alphaherpesvirus 1, Vero, 72 h

T2 sequence (P08546 whole entry): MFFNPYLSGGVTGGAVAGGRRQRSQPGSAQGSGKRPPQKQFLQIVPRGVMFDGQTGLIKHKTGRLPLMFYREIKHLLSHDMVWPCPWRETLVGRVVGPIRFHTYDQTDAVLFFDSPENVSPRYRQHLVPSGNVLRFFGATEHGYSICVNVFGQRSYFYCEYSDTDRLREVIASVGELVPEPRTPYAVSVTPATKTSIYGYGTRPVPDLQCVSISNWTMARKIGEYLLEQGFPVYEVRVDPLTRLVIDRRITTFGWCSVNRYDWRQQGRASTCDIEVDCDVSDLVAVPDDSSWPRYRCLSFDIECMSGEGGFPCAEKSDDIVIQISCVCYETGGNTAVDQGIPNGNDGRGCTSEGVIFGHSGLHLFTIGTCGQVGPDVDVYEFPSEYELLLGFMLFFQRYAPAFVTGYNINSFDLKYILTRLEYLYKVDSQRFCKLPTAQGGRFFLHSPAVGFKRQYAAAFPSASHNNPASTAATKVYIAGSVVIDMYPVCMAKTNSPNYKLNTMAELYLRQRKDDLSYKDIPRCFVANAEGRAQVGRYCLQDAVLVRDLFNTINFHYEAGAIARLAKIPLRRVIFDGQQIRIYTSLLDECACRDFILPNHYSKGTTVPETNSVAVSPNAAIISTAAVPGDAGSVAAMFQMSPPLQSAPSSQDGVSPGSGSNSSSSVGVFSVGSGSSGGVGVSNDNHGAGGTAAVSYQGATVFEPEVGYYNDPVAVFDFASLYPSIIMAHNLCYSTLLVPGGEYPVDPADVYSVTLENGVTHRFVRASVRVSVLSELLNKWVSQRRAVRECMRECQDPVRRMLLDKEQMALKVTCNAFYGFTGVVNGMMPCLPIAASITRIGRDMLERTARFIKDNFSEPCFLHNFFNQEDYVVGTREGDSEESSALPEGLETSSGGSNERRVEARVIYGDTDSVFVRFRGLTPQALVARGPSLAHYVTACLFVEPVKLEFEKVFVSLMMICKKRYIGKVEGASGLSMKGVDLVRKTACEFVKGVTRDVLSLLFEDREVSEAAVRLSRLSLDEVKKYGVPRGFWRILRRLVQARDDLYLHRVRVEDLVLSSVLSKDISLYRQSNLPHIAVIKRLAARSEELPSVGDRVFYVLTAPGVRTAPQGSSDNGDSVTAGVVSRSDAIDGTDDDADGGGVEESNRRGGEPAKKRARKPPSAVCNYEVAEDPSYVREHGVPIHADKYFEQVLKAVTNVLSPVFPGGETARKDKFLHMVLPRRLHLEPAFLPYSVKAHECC
T1 sequence (P09252 whole entry): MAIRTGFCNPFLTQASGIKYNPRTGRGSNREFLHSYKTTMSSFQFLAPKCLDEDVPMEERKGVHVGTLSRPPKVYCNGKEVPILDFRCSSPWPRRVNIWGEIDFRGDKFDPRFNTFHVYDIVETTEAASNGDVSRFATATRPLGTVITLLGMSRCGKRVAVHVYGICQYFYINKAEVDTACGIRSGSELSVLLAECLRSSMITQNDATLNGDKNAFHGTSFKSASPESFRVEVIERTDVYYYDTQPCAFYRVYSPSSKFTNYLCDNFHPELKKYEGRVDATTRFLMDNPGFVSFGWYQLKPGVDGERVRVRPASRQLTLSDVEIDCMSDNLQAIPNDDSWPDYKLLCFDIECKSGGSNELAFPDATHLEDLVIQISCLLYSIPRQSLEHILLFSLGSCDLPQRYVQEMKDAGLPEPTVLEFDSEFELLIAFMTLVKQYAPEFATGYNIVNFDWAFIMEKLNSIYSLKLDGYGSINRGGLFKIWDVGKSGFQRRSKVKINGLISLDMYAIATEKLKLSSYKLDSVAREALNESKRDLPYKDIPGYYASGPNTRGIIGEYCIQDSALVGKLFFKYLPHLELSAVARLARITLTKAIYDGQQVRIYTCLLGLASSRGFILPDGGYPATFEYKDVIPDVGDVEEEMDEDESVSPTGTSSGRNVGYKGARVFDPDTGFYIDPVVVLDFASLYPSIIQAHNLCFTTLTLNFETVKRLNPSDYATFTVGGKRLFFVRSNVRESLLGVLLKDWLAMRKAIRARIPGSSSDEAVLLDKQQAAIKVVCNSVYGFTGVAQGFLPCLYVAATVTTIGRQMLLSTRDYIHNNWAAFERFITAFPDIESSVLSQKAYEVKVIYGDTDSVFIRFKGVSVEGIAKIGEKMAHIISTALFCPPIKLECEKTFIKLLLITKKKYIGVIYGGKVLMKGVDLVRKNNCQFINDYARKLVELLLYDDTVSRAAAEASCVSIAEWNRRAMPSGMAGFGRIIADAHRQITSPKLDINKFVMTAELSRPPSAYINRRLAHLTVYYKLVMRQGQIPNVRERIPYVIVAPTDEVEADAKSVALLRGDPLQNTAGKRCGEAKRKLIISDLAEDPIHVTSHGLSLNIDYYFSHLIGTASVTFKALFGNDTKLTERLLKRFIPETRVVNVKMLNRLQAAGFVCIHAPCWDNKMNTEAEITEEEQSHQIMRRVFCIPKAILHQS

SMILES | pIC50 [1] | pIC50 (VZV [2]) | pEC50 (HSV2 [3]; ~72 hrs) | pIC50 [4] | pEC50 (HSV-1 Strain F [5]; ~72 hrs) | pEC50 (HSV2 [3]; [12]) | pEC50 (HSV-1 Strain F [5]; [14]) | pEC50 (HCMV Strain AD169; MRC5 cells, ~72 hrs) | pEC50 (HCMV Strain AD169; [9]) | pIC50 (VZV [6]; [10]) | pEC50 (HSV2 [7]; [11]) | pEC50 (HSV-1 Strain F [8]; [13]) | pIC50 (VZV [6]; ~72 hrs) | pEC50 (HSV2 [7]; ~72 hrs) | pEC50 (HSV-1 Strain F [8]; ~72 hrs)
O=C1CC[C@@H](CN2Cc3c(C(=O)NCc4ccc(Cl)cc4)nn(C4CCC(F)(F)C4)c3C2)N1 (single isomer, unassigned) [Compound 55] | 7.57 | 6.32 | 4.88 | 7.03 | 5.25 | – | – | 5.57 | – | – | – | – | – | – | –
Cn1nc(C(=O)NCc2ccc(Cl)cc2)c2c1CN(C[C@H]1CCC(=O)N1)C2 [Compound 32] | 8.25 | – | – | 7.85 | – | 6.78 | 6.42 | – | 6.38 | 6.38 | 6.30 | 6.19 | – | – | –
Cn1nc(C(=O)NCc2ccc(Cl)cc2F)c2c1CN(C[C@H]1CCC(=O)N1)C2 [Compound 61] | 6.72 | – | – | 6.46 | – | 4.42 | 4.51 | – | 5.70 | – | – | – | – | – | –
CC(C1CC(F)C(=O)N1)N1Cc2c(C(=O)NCc3ccc(Cl)cc3)nn(C)c2C1 (stereo not drawn) [Compound 76] | 7.44 | – | 5.80 | 7.52 | 5.85 | – | – | 5.44 | – | – | – | – | – | – | –
CC(C1CC(F)(F)C(=O)N1)N1Cc2c(C(=O)NCc3ccc(Cl)cc3)nn(C)c2C1 (stereo not drawn) [Compound 86] | 7.43 | – | 5.63 | 7.74 | 5.77 | – | – | 6.21 | – | – | – | – | – | – | –
C[C@@H]1c2c(C(=O)NCc3ccc(Cl)cc3)nn(C)c2CN1C[C@H]1CCC(=O)N1 [Compound 126] | 6.80 | – | 5.71 | 6.28 | 5.92 | – | – | 5.21 | – | – | – | – | – | – | –
O=C1CC[C@H](CC2Cc3c(C(=O)NCc4ccc(Cl)cc4)nn(CCN4CC(F)C4)c3C2)N1 (stereo partly drawn) [Compound 132] | 7.89 | – | – | 7.67 | – | 5.03 | 5.14 | – | 5.53 | – | – | – | – | – | –
CC(C)N1CC(n2nc(C(=O)NCc3ccc(Cl)cc3)c3c2CC(C[C@H]2CCC(=O)N2)C3)C1 (stereo partly drawn) [Compound 134] | 7.83 | – | 6.23 | 7.06 | 6.00 | – | – | 6.01 | – | – | – | – | 6.08 | 6.26 | 5.93

Second part, led by results:

pIC50 [1] | pIC50 (VZV [2]) | pEC50 (HSV2 [3]; ~72 hrs) | pIC50 [4] | pEC50 (HSV-1 Strain F [5]; ~72 hrs) | pEC50 (HSV2 [3]; [12]) | pEC50 (HSV-1 Strain F [5]; [14]) | SMILES | pEC50 (HCMV Strain AD169; MRC5 cells, ~72 hrs) | pEC50 (HCMV Strain AD169; [9]) | pIC50 (VZV [6]; [10]) | pEC50 (HSV2 [7]; [11]) | pEC50 (HSV-1 Strain F [8]; [13]) | pIC50 (VZV [6]; ~72 hrs) | pEC50 (HSV2 [7]; ~72 hrs) | pEC50 (HSV-1 Strain F [8]; ~72 hrs)
7.64 | – | 6.28 | 7.16 | 6.67 | – | – | O=C1CC[C@@H](CN2Cc3c(C(=O)NCc4ccc(Cl)cc4)nn(C(F)F)c3C2)N1 [Compound 46] | 6.15 | – | – | – | – | – | – | –
7.31 | – | – | 7.15 | – | 5.45 | 5.86 | [2H]C([2H])([2H])n1nc(C(=O)NCc2ccc(Cl)cc2)c2c1CN(C[C@H]1CCC(=O)N1)C2 [Compound 59] | – | 6.15 | 5.28 | 5.50 | 5.15 | – | – | –
6.99 | – | 5.64 | 6.77 | 5.71 | – | – | Cn1nc(C(=O)NCc2ccc(Cl)cc2)c2c1CN(C[C@@H]1CC(F)C(=O)N1)C2 (stereo partly drawn) [Compound 80] | 5.56 | – | – | – | – | 5.41 | 5.55 | 5.40
8.31 | – | – | 8.12 | – | 6.71 | 6.66 | CC(C)[C@H]1c2c(c(C(=O)NCc3ccc(Cl)cc3)nn2C)CN1C[C@@H]1CCC(=O)N1 [Compound 100] | – | 6.65 | – | – | – | – | – | –
7.93 | – | – | 7.77 | – | 5.15 | 5.14 | O=C1CCC(CC2Cc3c(C(=O)NCc4ccc(Cl)cc4)nn(CCN4CC(F)(F)C4)c3C2)N1 (stereo not drawn) [Compound 131] | – | 5.80 | – | – | – | – | – | –
7.71 | – | – | 7.07 | – | 5.97 | 5.79 | O=C1CC[C@H](CC2Cc3c(C(=O)NCc4ccc(Cl)cc4)nn(CCN4CCOCC4)c3C2)N1 (stereo partly drawn) [Compound 133] | – | 6.09 | 5.92 | 6.25 | 5.92 | – | – | –
7.58 | – | – | 7.05 | – | 5.70 | 5.82 | CC(C)CN1CC(n2nc(C(=O)NCc3ccc(Cl)cc3)c3c2CC(C[C@H]2CCC(=O)N2)C3)C1 (stereo partly drawn) [Compound 135] | – | 6.11 | 6.20 | 6.23 | 6.13 | – | – | –
7.30 | – | – | 6.76 | – | 4.25 | 4.58 | CN1CC(n2nc(C(=O)NCc3ccc(Cl)cc3)c3c2CC(C[C@H]2CCC(=O)N2)C3)C1 (stereo partly drawn) [Compound 137] | – | 5.11 | – | – | – | – | – | –

Source: patent publication US20240059693A1, “FUSED BICYCLIC PYRAZOLE DERIVATIVES AND METHODS OF USE THEREOF FOR THE TREATMENT OF HERPESVIRUSES” (Merck Sharp & Dohme LLC, priority 2020, published 2024)
